Reference: patent US11136320B2, “Fused ring derivative used as FGFR4 inhibitor” (JACOBIO PHARMACEUTICALS CO., LTD., priority 2019, dated 2021)

Columns and labels:
FGFR4 kinase [1] = molecular target: T1, FGFR4 kinase (Homo sapiens (Human), UniProt P22455)
FGFR4 kinase [2] = molecular target: T1, FGFR4 kinase; test: biochemical
PK analysis of rats = format: in vivo; details: SD rats, p.o. (10 mg/kg); for AUC(0-t) / Cmax: rat, plasma, po; for AUC(0-t): read-out: Curve area AUC0-24 h; for Cmax: read-out: Drug concentration in blood Cmax
Method: In the present invention, the pharmacokinetics experiment of the compounds in rats was performed using the SD rats (Vitolihua).
(1) Mode of administration: single gavage administration and intravenous injection administration.
(2) Dosage: 10 mg/kg in the gavage administration, 3 mg/kg in the intravenous injection administration.
Gavage administration: before administration, 15 min, 30 min, 1 h, 2 h, 4 h, 6 h, 8 h, 24 h; […]
(4) Sample processing: 200 μL of orbital blood was collected at each sampling time point. After anticoagulation with heparin, the blood was centrifuged at 5500 rpm for 10 min, and 60 μL of the supernatant was taken and put into the refrigerator at −80° C. for waiting for testing.
Samples obtained after administration of Compound 1 were tested using 4000 LC-MS/MS analyzer, wherein, the chromatographic separation conditions for testing were:
Samples obtained after administration of Compound 7 were tested using 4000 LC-MS/MS analyzer, wherein, the chromatographic separation conditions for testing were:
Samples obtained after administration of Compound 16 were tested using 4000 LC-MS/MS analyzer, wherein, the chromatographic separation conditions for testing were: […]

[3] = test system: Hepatoma cell Hep3B (high expression of FGFR4 and FGF19); test: Hepatoma cell proliferation inhibition experiment (MTS method); format: cell-based; details: for IC50: Homo sapiens, Hep3B, 120 h incubation, read-out: Hep3B(IC50 μM)
Excerpt: In this experiment, the MTS method was used to test the inhibitory effect of the compounds on the proliferation of Hepatoma cell Hep3B (high expression of FGFR4 and FGF19), and the half inhibitory concentration IC50 of the compounds to Hep3B was obtained. The Hep3B cell line was purchased from ATCC, and the complete culture medium of the Hep3B cell line was MEM+10% FBS+1% PS. MEM cell culture medium, fetal bovine serum, and trypsin were purchased from Gibco, cell culture flasks were purchased from Greiner, and disposable Cell Counting Plate and Taittinger Blue Solution were purchased from Bio-Rad.
(1) 100 μl Hepatoma cell Hep3B suspension was seeded in a 96-well cell culture plate, and the density of each well was 2.0×10^4 cells/ml.
(3) A mixture of MTS (3-(4,5-dimethylthiazol-2-yl)-5-(3-carboxymethoxyphenyl)-2-(4-sulfophenyl)-2H-tetrazolium)/PMS (phenazine methosulfate) was added into each well for coloration, and MTS/PMS in the mixture was at a ratio of 20:1 (ml:ml). 30 μl of the mixture was added into each well of the culture plate above mentioned in step (2), then the culture plate was incubated for 3 h in the incubator.
(5) The inhibition rate was calculated by the […];
(6) According to the inhibition rate of the different concentrations, the IC50 values of the compounds were obtained by curve fitting.

T1 sequence (P22455 22-802): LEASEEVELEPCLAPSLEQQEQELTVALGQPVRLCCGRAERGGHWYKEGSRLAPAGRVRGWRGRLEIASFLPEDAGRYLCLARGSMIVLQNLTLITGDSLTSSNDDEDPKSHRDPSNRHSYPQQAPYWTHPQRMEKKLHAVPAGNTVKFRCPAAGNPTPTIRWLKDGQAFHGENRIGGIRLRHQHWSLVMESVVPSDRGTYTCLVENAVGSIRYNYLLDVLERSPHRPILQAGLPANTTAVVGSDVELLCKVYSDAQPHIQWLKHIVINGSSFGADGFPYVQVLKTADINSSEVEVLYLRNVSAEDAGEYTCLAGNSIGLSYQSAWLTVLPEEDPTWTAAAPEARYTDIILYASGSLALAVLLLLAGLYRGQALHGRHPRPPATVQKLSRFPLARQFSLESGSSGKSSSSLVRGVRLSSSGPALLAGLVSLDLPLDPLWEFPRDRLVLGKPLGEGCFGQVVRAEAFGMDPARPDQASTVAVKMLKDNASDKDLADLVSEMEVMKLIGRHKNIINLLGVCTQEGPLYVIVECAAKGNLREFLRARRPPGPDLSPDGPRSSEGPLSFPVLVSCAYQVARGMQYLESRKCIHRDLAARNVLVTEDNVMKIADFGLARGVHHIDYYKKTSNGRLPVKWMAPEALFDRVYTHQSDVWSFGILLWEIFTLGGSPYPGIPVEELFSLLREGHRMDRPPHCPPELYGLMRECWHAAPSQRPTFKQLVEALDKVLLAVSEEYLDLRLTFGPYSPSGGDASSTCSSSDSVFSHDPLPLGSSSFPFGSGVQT

SMILES | inhibitory effect on FGFR4 compared with the reference compound (FGFR4 kinase [1]) | IC50 (FGFR4 kinase [2]) [nM] | exposure amount AUC0-24 h and maximum drug concentration in blood Cmax compared with the reference compound (PK analysis of rats) | AUC(0-t) (PK analysis of rats) [ng·h/mL] | Cmax (PK analysis of rats) [ng/mL] | inhibitory effect on Hepatoma cell Hep3B compared with the reference compound [3] | IC50 [3] [µM]
CN1CCN(Cc2cc3c(nc2C=O)N(C(=O)Nc2cc(NC4CCSC4)c(C#N)cn2)CCC3)C(=O)C1 (stereo not drawn) [Compound 5, N-(5-cyano-4-((tetrahydrothiophene-3-yl)amino)pyridin-2-yl)-7-formyl-6-((4-methyl-2-oxopiperazin-1-yl)methyl)-3,4-dihydro-1,8-naphthyridine-1 (2H)-carboxamide] | better inhibitory effect on FGFR4 than the reference compound | 2 | significantly higher than the reference compound | 6730 | 1400 |  | 
CSC[C@@H](C)Nc1cc(NC(=O)N2CCCc3cc(CN4CCCC4=O)c(C=O)nc32)ncc1C#N [Compound 7, (R)—N-(5-cyano-4-((1-(methylthio)propan-2-yl)amino)pyridin-2-yl)-7-formyl-6-((2-oxopyrrolidine-1-yl)methyl)-3,4-dihydro-1,8-naphthyridine-1 (2H)-carboxamide] | better inhibitory effect on FGFR4 than the reference compound | 1.5 | significantly higher than the reference compound | 2850 | 736 | better inhibitory effect | 0.011
CN1CCN(Cc2cc3c(nc2C=O)N(C(=O)Nc2cc(NCc4nccs4)c(C#N)cn2)CCC3)C(=O)C1 [Compound 56, N-(5-cyano-4-((thiazol-2-yl-methyl)amino)pyridin-2-yl)-7-formyl-6-((4-methyl-2-oxopiperazin-1-yl)methyl)-3,4-dihydro-1,8-naphthyridine-1(2H)-carboxamide] | better inhibitory effect on FGFR4 than the reference compound | 1.6 | significantly higher than the reference compound | 2010 | 548 | better inhibitory effect | 0.013
CN1CCN(Cc2cc3c(nc2C=O)N(C(=O)Nc2cc(NCCSC(F)(F)F)c(C#N)cn2)CCC3)C(=O)C1 [Compound 62, N-(5-cyano-4-((2-((trifluoromethyl)thio)ethyl)amino)pyridin-2-yl)-7-formyl-6-((4-methyl-2-oxopiperazin-1-yl)methyl)-3,4-dihydro-1,8-naphthyridine-1(2H)-carboxamide] | better inhibitory effect on FGFR4 than the reference compound | 1.7 |  |  |  |  | 0.054
CSCCCNc1cc(NC(=O)N2CCCc3cc(CN4CCN(C)CC4=O)c(C=O)nc32)ncc1C#N [Compound 64, N-(5-cyano-4-((3-(methylthio)propyl)amino)pyridin-2-yl)-7-formyl-6-((4-methyl-2-oxopiperazin-1-yl)methyl)-3,4-dihydro-1,8-naphthyridine-1(2H)-carboxamide] | better inhibitory effect on FGFR4 than the reference compound | 1.6 |  |  |  | better inhibitory effect | 0.018
C[C@H](C[S+](C)[O-])Nc1cc(NC(=O)N2CCCc3cc(CN4CCN(C)CC4=O)c(C=O)nc32)ncc1C#N (stereo partly drawn) [Compound 69, N-(5-cyano-4-(((2R)-1-(methylsulfinyl)propan-2-yl)amino)pyridin-2-yl)-7-formyl-6-((4-methyl-2-oxopiperazin-1-yl)methyl)-3,4-dihydro-1,8-naphthyridine-1(2H)-carboxamide] | better inhibitory effect on FGFR4 than the reference compound | 2.1 |  |  |  |  | 0.067
CN1CCN(Cc2cc3c(nc2C=O)N(C(=O)Nc2cc(NCCS(C)(=O)=O)c(C#N)cn2)CCC3)C(=O)C1.Cl [Compound 72, N-(5-cyano-4-((2-(methyl-sulfonyl)ethyl)amino)pyridin-2-yl)-7-formyl-6-((4-methyl-2-oxopiperazin-1-yl)methyl)-3,4-dihydro-1,8-naphthyridine-1(2H)-carboxamide hydrochloride] | better inhibitory effect on FGFR4 than the reference compound | 2 |  |  |  |  | 0.282
CSCCNc1cc(NC(=O)N2CCCc3cc(CN(C)C(=O)C4CCOCC4)c(C=O)nc32)ncc1C#N.Cl [Compound 73, N-(5-cyano-4-((2-(methyhthio)ethyl)amino)pyridin-2-yl)-7-formyl-6-((N-methyltetrahydro-2H-pyran-4-carboxamido)methyl)-3,4-dihydro-1,8-naphthyridine-1(2H)-carboxamide hydrochloride] | better inhibitory effect on FGFR4 than the reference compound | 2.3 |  |  |  |  | 0.039
CSCCNc1cc(NC(=O)N2CCCc3cc(CN(C)C(=O)[C@@H]4CCCO4)c(C=O)nc32)ncc1C#N.Cl [Compound 75, (S)-N-(5-cyano-4-((2-(methylthio)ethyl)amino)pyridin-2-yl)-7-formyl-6-((N-methyltetrahydrofuran-2-carboxamido)methyl)-3,4-dihydro-1,8-naphthyridine-1(2H)-carboxamide hydrochloride] | better inhibitory effect on FGFR4 than the reference compound | 1.8 |  |  |  |  | 0.028
CSCCNc1cc(NC(=O)N2CCCc3cc(CN(C)C(=O)C4CCOC4)c(C=O)nc32)ncc1C#N.Cl (stereo not drawn) [Compound 76, N-(5-cyano-4-((2-(methylthio)ethyl)amino)pyridin-2-yl)-7-formyl-6-((N-methyltetrahydrofuran-3-carboxamido)methyl)-3,4-dihydro-1,8-naphthyridine-1(2H)-carboxamide hydrochloride] | better inhibitory effect on FGFR4 than the reference compound | 2.1 |  |  |  | better inhibitory effect | 0.006
C[C@H](CS(C)(=O)=O)Nc1cc(NC(=O)N2CCCc3cc(CN4CCN(C)CC4=O)c(C=O)nc32)ncc1C#N [Compound 83, N-(5-cyano-4-(((2R)-1-(methyl-sulfonyl)propan-2-yl)amino)pyridin-2-yl)-7-formyl-6-((4-methyl-2-oxopiperazin-1-yl)methyl)-3,4-dihydro-1,8-naphthyridine-1(2H)-carboxamide] | better inhibitory effect on FGFR4 than the reference compound | 2.1 |  |  |  |  | 0.068
